Here are results for 15 substances from patent US20250262315A1 (priority 2021, published 2025).

The target of series [1] is T1, human neutrophil elastase (Homo sapiens, UniProt P08246).
T1 construct: purchased MilliporeSigma
T1 sequence (P08246 30-267): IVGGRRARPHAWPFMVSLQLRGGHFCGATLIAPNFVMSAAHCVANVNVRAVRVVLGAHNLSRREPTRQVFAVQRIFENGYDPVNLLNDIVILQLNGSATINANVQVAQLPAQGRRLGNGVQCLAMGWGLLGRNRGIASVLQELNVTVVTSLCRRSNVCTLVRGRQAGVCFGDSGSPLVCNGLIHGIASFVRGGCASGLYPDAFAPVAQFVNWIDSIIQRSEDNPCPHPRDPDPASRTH
The series can be described thus: Human neutrophil protease-mediated cleavage assay using pyrene probes: neutrophil elastase. In kind it is biochemical. To be noted: 37° C.; for stability against degradation mediated by neutrophil elastase or mouse plasma (in words): additional probes; for stability against human neutrophil elastase-mediated degradation (in words): pyrene probes; for % intact probe, Neutrophil elastase: after incubation for 24 h, n = 2, mean ± SEM. How it is done:
(§1) Human neutrophil protease-mediated cleavage assay using pyrene probes. Each test compound (10 mM in DMSO, 2 μL) was mixed with 97 μL of tris-buffered saline (TBS, pH 7.4) and 1 μL of 1-pyrenemethylamine (10 mM in DMSO, internal standard). The mixture was incubated at 37° C. for 10 min. Human neutrophil elastase (40 ng μL^−1, 20 μL in TBS, MilliporeSigma), human proteinase 3 (250 ng μL^−1, 5 μL in TBS, MilliporeSigma) or human cathepsin G (330 ng μL^−1, 5 μL in TBS, MilliporeSigma) was added to the test compound mixture in 1:1 volume ratio, followed by incubation at 37° C. Aliquots (5 μL) were collected at each time point (0, 1, 3, 6, and 24 h for elastase; 0 and 24 h for proteinase 3 and cathepsin G). Cold acetonitrile containing 1% formic acid (25 μL) was added to precipitate proteins. The mixture was then kept at −20° C. for 30 min. Precipitated proteins were pelleted by centrifugation (15,000×g, 4° C., 30 min) and supernatant of each sample was analyzed for quantification by analytical HPLC (UV absorbance at 342 nm). The amount of each probe was normalized to the peak area of the internal standard. All assays were performed at least three times in technical duplicate, and data shown are representative of the replicates.

A short description of series [2]: Plasma stability test using pyrene probes, BALB/c mouse plasma. To be noted: 37° C.; for stability in undiluted BALB/c plasma (in words): pyrene probes; for % intact probe, 48 h incubation, Mouse / % intact probe, 96 h incubation, Mouse: undiluted mouse plasma; for % intact probe, 96 h incubation, Mouse: 96 h (4-day). In kind it is in vitro ADME. How it is done: (§2) Plasma stability test using pyrene probes. Each test compound (10 mM in DMSO, 2 μL) was mixed with 1 μL of 1-pyrenemethylamine (10 mM in DMSO, internal standard) and incubated at 37° C. for 10 min. Pooled healthy human plasma, monkey cynomolgus plasma or BALB/c mouse plasma (197 μL, Innovative Research) was added to the mixture, followed by incubation at 37° C. Aliquots (5 μL) were collected at each time point (0, 48, and 96 h for human and monkey cynomolgus plasma; 0, 1, 6, 24, 48, and 96 h for BALB/c mouse plasma) and 25 μL of cold acetonitrile containing 1% formic acid was added to precipitate proteins. The mixture was then kept at −20° C. for 30 min. Precipitated proteins were separated by centrifugation (15,000×g, 4° C., 30 min) and supernatant of each sample was obtained and analyzed for quantification by analytical HPLC as described above. All assays were performed at least three times in technical duplicate, and data shown are representative of the replicates.

In series [3] the target is T2, human cathepsin G (Homo sapiens, UniProt P08311).
T2 construct: purchased MilliporeSigma
T2 sequence (P08311 21-244): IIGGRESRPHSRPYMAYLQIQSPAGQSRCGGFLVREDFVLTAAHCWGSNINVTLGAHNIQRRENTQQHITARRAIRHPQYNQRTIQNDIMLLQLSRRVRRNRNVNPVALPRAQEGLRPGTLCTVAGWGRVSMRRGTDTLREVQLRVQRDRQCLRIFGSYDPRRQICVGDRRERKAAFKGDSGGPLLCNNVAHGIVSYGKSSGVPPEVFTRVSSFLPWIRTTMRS
The series can be described thus: Human neutrophil protease-mediated cleavage assay using pyrene probes: cathepsin G. The format is biochemical. To be noted: for % intact probe, Cathepsin G: after incubation for 24 h, 37° C., n = 2, mean ± SEM. As for the experimental part:
as §1

Series [4] in a line: Plasma stability test using pyrene probes, human plasma. The format is in vitro ADME. To be noted: for % intact probe, 48 h incubation, Human / % intact probe, 96 h incubation, Human: undiluted human plasma, 37° C. How it is done:
as §2

Series [5] addresses T3, human proteinase 3 (Homo sapiens, UniProt P24158).
T3 construct: purchased MilliporeSigma
T3 sequence (P24158 28-248): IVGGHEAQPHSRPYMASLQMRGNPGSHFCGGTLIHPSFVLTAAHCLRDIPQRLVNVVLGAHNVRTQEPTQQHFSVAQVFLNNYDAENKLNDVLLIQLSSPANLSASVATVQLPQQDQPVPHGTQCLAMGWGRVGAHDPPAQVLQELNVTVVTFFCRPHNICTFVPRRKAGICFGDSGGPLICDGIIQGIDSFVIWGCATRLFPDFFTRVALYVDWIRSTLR
The series can be described thus: Human neutrophil protease-mediated cleavage assay using pyrene probes: proteinase 3. The format is biochemical. To be noted: for % intact probe, Proteinase 3: after incubation for 24 h, 37° C., n = 2, mean ± SEM; for resistance to cleavage by human proteinase 3 (in words): pyrene probes. As for the experimental part: as §1

The nature of series [6]: Plasma stability test using pyrene probes, monkey plasma. The format is in vitro ADME, cynomolgus monkey. To be noted: for % intact probe, 48 h incubation, Monkey / % intact probe, 96 h incubation, Monkey: undiluted monkey plasma, 37° C. How it is done:
as §2

A short description of the next series: monkey cynomolgus plasma. To be noted: 37° C., up to 96 h.
The subject of series [7] is Human neutrophil elastase. The series can be described thus: human neutrophil elastase in tris-buffered saline (TBS, pH 7.4). To be noted: 37° C., up to 24 h.
The test system of series [8] is human cathepsin G. The series can be described thus: human cathepsin G in tris-buffered saline (TBS, pH 7.4). To be noted: 37° C., up to 24 h.
The subject of series [9] is human proteinase 3. The series can be described thus: human proteinase 3 in tris-buffered saline (TBS, pH 7.4). To be noted: 37° C., up to 24 h.
Series [10] can be described thus: Pooled healthy human plasma. To be noted: 37° C., up to 96 h.

Take “Ac-Glu-(N-Me)Val-Cit-PABC-sar-pyrene [S1b]”: the “stability against degradation mediated by neutrophil elastase or mouse plasma (in words)” value (“stability against degradation mediated” below) in [1] is “instability”.

Turning to “Ac-Glu-Ala-Cit-PABC-sar-pyrene [probe 3b]”, in series [2], the “stability in undiluted BALB/c plasma (in words)” value was “improved stability compared to EVCit probe 2”. In addition, in series [1], the “stability against human neutrophil elastase-mediated degradation (in words)” value is reported as “complete degradation”.

As to “Ac-Glu-Gly-Cit-PABC-sar-pyrene [EGCit 3a]”, the “% intact probe, Cathepsin G” value at human cathepsin G [3] is 100.0 ± 1.8%. In addition, on human cathepsin G [3] (pyrene probes), the “resistance to cleavage by cathepsin G (in words)” value is given as “completely intact”. In addition, the “degradation in human plasma (in words)” value in series [4] (pyrene probes) is on record as “completely withstood degradation”. Besides, in series [4], the “% intact probe, 48 h incubation, Human” value is on record as 96.5% and the “% intact probe, 96 h incubation, Human” value came to 100.3%. Besides, at human proteinase 3 [5], the “% intact probe, Proteinase 3” value came out at 98.0 ± 1.1% and the “resistance to cleavage by human proteinase 3 (in words)” value is “completely intact”. The “degradation in monkey plasma (in words)” value in [6] (pyrene probes) is recorded as “completely withstood degradation”. In [6], the “% intact probe, 48 h incubation, Monkey” value came out at 98.7% and the “% intact probe, 96 h incubation, Monkey” value was 98.8%. For the same substance, in series [2], the “stability in undiluted BALB/c plasma (in words)” value is recorded as “improved stability compared to EVCit probe 2”; the “% intact probe, 48 h incubation, Mouse” value is listed as 69.2%; the “% intact probe, 96 h incubation, Mouse” value came to 40.3%. Moreover, the “% intact probe, 96 h incubation, Mouse” value in series [2] (listed as EGCit probe 3a) was 40%. In addition, in series [1], the “% intact probe, Neutrophil elastase” value amounted to 99.2 ± 0.3% and the “stability against human neutrophil elastase-mediated degradation (in words)” value is recorded as “marginal or almost no degradation”.

Take “Ac-Glu-Ile-Cit-PABC-sar-pyrene [probe 3d]”: in series [1], the “stability against human neutrophil elastase-mediated degradation (in words)” value is “complete degradation”.

Regarding “Ac-Glu-Leu-Cit-PABC-sar-pyrene [probe 3c]”, the “stability against human neutrophil elastase-mediated degradation (in words)” value in series [1] is recorded as “marginal or almost no degradation”.

In the case of Ac-Glu-Phe-Cit-PABC-sar-pyrene [S1a], the “stability against degradation mediated” value in series [1] is “instability”.

As to “Ac-Glu-Val-(N-Me)Cit-PABC-sar-pyrene [EV(N-Me)Cit 3e]”, the “% intact probe, Cathepsin G” value on human cathepsin G [3] is 99.6 ± 0.3%. Moreover, in series [4], the “% intact probe, 48 h incubation, Human” value came out at 99.5% and the “% intact probe, 96 h incubation, Human” value came to 86.4%. Besides, at human proteinase 3 [5], the “% intact probe, Proteinase 3” value turned out to be 84.4 ± 0.9% and the “resistance to cleavage by human proteinase 3 (in words)” value is “partially degraded”. Also, in series [6], the “% intact probe, 48 h incubation, Monkey” value is on record as 97.8% and the “% intact probe, 96 h incubation, Monkey” value stood at 91.9%. Also, in series [2], the “stability in undiluted BALB/c plasma (in words)” value was “improved stability compared to EVCit probe 2”; the “% intact probe, 48 h incubation, Mouse” value came out at 37.8%; the “% intact probe, 96 h incubation, Mouse” value turned out to be 12.0%. Moreover, in series [1], the “% intact probe, Neutrophil elastase” value is 99.0 ± 2.4% and the “stability against human neutrophil elastase-mediated degradation (in words)” value is “marginal or almost no degradation”.

Take Ac-Gly-Cit-PABC-sar-pyrene [probe 3f]: the “stability in undiluted BALB/c plasma (in words)” value in series [2] is reported as “less stable than the EGCit probe 3a”. Besides, the “stability against human neutrophil elastase-mediated degradation (in words)” value in series [1] was “marginal or almost no degradation”.

Take Ac-Val-(N-Me)Cit-PABC-sar-pyrene [S1d]: the “stability against degradation mediated” value in [1] was “instability”.

On to EGCit, for which the not cleaved in the series “monkey cynomolgus plasma” was found to be 98.8 ± 1.6 % intact probe after 96 h; in series [7], 99.2 ± 0.3 % intact probe after 24 h; in the series on human cathepsin G [8], 100.0 ± 1.8 % intact probe after 24 h; with human proteinase 3 [9], 98.0 ± 1.1 % intact probe after 24 h; in series [10], 100.3 ± 5.5 % intact probe after 96 h.

As for ELCit, in series [7], the not cleaved entry is recorded as “marginal or almost no degradation”.

In the case of EV(N-Me)Cit-PABC-pyrene, the figures for the not cleaved (in the series “monkey cynomolgus plasma”; in series [7]; in the series with human cathepsin G [8]) were 91.9 ± 1.2 % intact probe after 96 h, 99.0 ± 2.4 % intact probe after 24 h and 99.6 ± 0.3 % intact probe after 24 h, respectively.

As for EVCit, the not cleaved is on record as 95.8 ± 1.8 % intact probe after 96 h in “monkey cynomolgus plasma” and 91.1 ± 1.1 % intact probe after 96 h in series [10]. Besides, the cleaved bond entry in series [7] was “valine-citrulline”.

Turning to GCit, in [7], the not cleaved entry was “marginal or almost no degradation”.

Consider VCit-PABC-pyrene, for which the cleaved bond result in series [7] was “valine-citrulline, major”.
